Consider 14 compounds from patent US10030027B2, “Soluble guanylate cyclase stimulators” (MERCK SHARP & DOHME CORP., priority 2015, dated 2018).

Structures are written as SMILES.

Test [1] has as its target human recombinant sGC enzyme (Homo sapiens (Human), UniProt Q02108+Q02153). Put plainly: Size Exclusion Chromatography (SEC) competition binding assay using [3H] Ex-77B as the radioligand. The note with it: [3H] Ex-77B radioligand, 24 hours at 37° C. The method in brief:
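Recombinant human sGC binding measured by competition against tritiated Ex-77B radioligand, with non-specific binding defined by 1 μM unlabeled Ex-77B.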
On the technique in general: In gel filtration, larger molecules generally elute earlier.

In another test the target is sGC α1/β1 heterodimer (Homo sapiens (Human), UniProt Q02108+Q02153). Put plainly: Cell-based sGC functional assay (cyclic GMP assay for sGC activator: CASA assay). Conditions: CHO-K1/sGC cells; for Emax: CHO-K1, activity expressed as percentage of compound A (standard), read-out: % Activation; for EC50: inflection point, 4P fit, read-out: IP. A digest of the protocol: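 CHO-K1 cells stably expressing sGC α1/β1 were pre-incubated with or without 1 μM DETA-NO (30 min, 25 °C), then exposed to compounds for 1 hr at 37 °C with 0.5 mM IBMX. Intracellular cGMP was read by HTRF and expressed as a percentage of a reference heme-dependent activator's maximum.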

In the case of `CC1(c2ccc(CCC(=O)O)c(O)c2)C(=O)Nc2nc(-c3nn(CCC(F)(F)C(F)(F)F)c4cc(Cl)ccc34)nc(N)c21` (stereo not drawn) [Example 122B, 3-(4-{4-Amino-2-[6-chloro-1-(3,3,4,4,4-pentafluorobutyl)-1H-indazol-3-yl]-5-methyl-6-oxo-6,7-dihydro-5H-pyrrolo[2,3-d]pyrimidin-5-yl}-2-hydroxyphenyl)propanoic acid], in test [1], the Ki – broadly, the dissociation constant of the complex between target and ligand, obtained from inhibition or displacement – amounted to 0.326 nM. On sGC α1/β1 heterodimer, the Emax came out at 115% and the EC50 stood at 895 nM.
Consider `CC(C)(Cc1nc(C2(C)C(=O)Nc3nc(-c4nn(Cc5ccccc5F)c5cc(Cl)ccc45)nc(N)c32)co1)C(=O)O` (stereo not drawn) [Example 128A, 3-(4-{4-amino-2-[6-chloro-1-(2-fluorobenzyl)-1H-indazol-3-yl]-5-methyl-6-oxo-6,7-dihydro-5H-pyrrolo[2,3-d]pyrimidin-5-yl}-1,3-oxazol-2-yl)-2,2-dimethylpropanoic acid], for which the Ki in test [1] turned out to be 0.111 nM. Further, on sGC α1/β1 heterodimer, the Emax was determined as 117% and the EC50 was 137 nM.
The like results for `CC1(c2ccc(CCC(=O)O)cn2)C(=O)Nc2nc(-c3nn(Cc4ccccc4F)c4cc(Cl)ccc34)nc(N)c21` (stereo not drawn) [Example 129A, 3-(6-{4-amino-2-[6-chloro-1-(2-fluorobenzyl)-1H-indazol-3-yl]-5-methyl-6-oxo-6,7-dihydro-5H-pyrrolo[2,3-d]pyrimidin-5-yl}pyridin-3-yl)propanoic acid] were, in that order, 0.117 nM, 98.5% and 51 nM.
The like results for `CC1(c2nc3cc(C(=O)O)ccc3s2)C(=O)Nc2nc(-c3nn(Cc4ccccc4F)c4cc(Cl)ccc34)nc(N)c21` (stereo not drawn) [Example 130A, 2-{4-amino-2-[6-chloro-1-(2-fluorobenzyl)-1H-indazol-3-yl]-5-methyl-6-oxo-6,7-dihydro-5H-pyrrolo[2,3-d]pyrimidin-5-yl}-1,3-benzothiazole-5-carboxylic acid] were, in that order, 0.184 nM, 116% and 1230 nM.
On to `CC(C)(Cc1ccc(C2(C)C(=O)Nc3nc(-c4nn(Cc5ccccc5F)c5cc(Cl)ccc45)nc(N)c32)nc1)C(=O)O` (stereo not drawn) [Example 131B, 3-(6-{4-amino-2-[6-chloro-1-(2-fluorobenzyl)-1H-indazol-3-yl]-5-methyl-6-oxo-6,7-dihydro-5H-pyrrolo[2,3-d]pyrimidin-5-yl}pyridin-3-yl)-2,2-dimethylpropanoic acid], for which, in test [1], the inhibition constant (Ki) is 0.125 nM. On sGC α1/β1 heterodimer, the Emax was found to be 120% and the EC50 worked out at 1060 nM.
The like results for `CC1(c2nc(CCC(F)(F)C(=O)O)co2)C(=O)Nc2nc(-c3nn(Cc4cccc(F)c4)c4cc(F)ccc34)nc(N)c21` (stereo not drawn) [Example 135A, 4-(2-{4-amino-2-[6-fluoro-1-(3-fluorobenzyl)-1H-indazol-3-yl]-5-methyl-6-oxo-6,7-dihydro-5H-pyrrolo[2,3-d]pyrimidin-5-yl}-1,3-oxazol-4-yl)-2,2-difluorobutanoic acid] were, in that order, 0.275 nM, 92.9% and 254 nM.
In the case of `CC(C)(Cc1coc(C2(C3CC3)C(=O)Nc3nc(-c4nn(Cc5ccccc5F)c5cc(Cl)ccc45)nc(N)c32)n1)C(=O)O` (stereo not drawn) [Example 138B, 3-(2-{4-amino-2-[6-chloro-1-(2-fluorobenzyl)-1H-indazol-3-yl]-5-cyclopropyl-6-oxo-6,7-dihydro-5H-pyrrolo[2,3-d]pyrimidin-5-yl}-1,3-oxazol-4-yl)-2,2-dimethylpropanoic acid], the Ki in test [1] stood at 0.058 nM. Further, at sGC α1/β1 heterodimer, the Emax came to 114% and the EC50 was found to be 375 nM.
Take `CC(C)(Cc1coc(C2(C3CC3)C(=O)Nc3nc(-c4nn(Cc5ccccc5F)c5cc(F)ccc45)nc(N)c32)n1)C(=O)O` (stereo not drawn) [Example 139B, 3-(2-{4-amino-5-cyclopropyl-2-[6-fluoro-1-(2-fluorobenzyl)-1H-indazol-3-yl]-6-oxo-6,7-dihydro-5H-pyrrolo[2,3-d]pyrimidin-5-yl}-1,3-oxazol-4-yl)-2,2-dimethylpropanoic acid]: in test [1], the Ki amounted to 0.114 nM. For the same compound, on sGC α1/β1 heterodimer, the Emax came to 135% and the EC50 came out at 3460 nM.
Consider `CC(C)(Cc1nc(C2(C)C(=O)Nc3nc(-c4nn(Cc5ccccc5F)c5cc(Cl)ccc45)nc(N)c32)cs1)C(=O)O` (stereo not drawn) [Example 142B, 3-(4-{4-amino-2-[6-chloro-1-(2-fluoro-benzyl)-1H-indazol-3-yl]-5-methyl-6-oxo-6,7-dihydro-5H-pyrrolo[2,3-d]pyrimidin-5-yl}-1,3-thiazol-2-yl)-2,2-dimethyl-propanoic acid], for which the Ki in test [1] was determined as 0.183 nM. At sGC α1/β1 heterodimer, the Emax is 109% and the EC50 came to 264 nM.
As to `CC1(c2ccnc(C(=O)O)c2)C(=O)Nc2nc(-c3nn(Cc4ccccc4F)c4cc(Cl)ccc34)nc(N)c21` (stereo not drawn) [Example 143B, 4-{4-amino-2-[6-chloro-1-(2-fluoro-benzyl)-1H-indazol-3-yl]-5-methyl-6-oxo-6,7-dihydro-5H-pyrrolo[2,3-d]pyrimidin-5-yl} pyridine-2-carboxylic acid], the Ki in test [1] is 0.174 nM. At sGC α1/β1 heterodimer, the Emax worked out at 76.1% and the EC50 is 3380 nM.
The like results for `CC(C)(Cn1cc(C2(C)C(=O)Nc3nc(-c4nn(CCC(F)(F)C(F)(F)F)c5ncccc45)nc(N)c32)cn1)C(=O)O` (stereo not drawn) [Example 144A, 3-(4-{4-amino-5-methyl-6-oxo-2-[1-(3,3,4,4,4-pentafluorobutyl)-1H-pyrazolo[3,4-b]pyridin-3-yl]-6,7-dihydro-5H-pyrrolo [2,3-d]pyrimidin-5-yl}-1H-pyrazol-1-yl)-2,2-dimethyl-propanoic acid] were, in that order, 0.594 nM, 93.1% and 1220 nM.
For the compound `CC(C)(Cn1cc(C2(C)C(=O)Nc3nc(-c4nn(Cc5ccccc5F)c5ncccc45)nc(N)c32)cn1)C(=O)O` (stereo not drawn) [Example 145A, 3-(4-{4-amino-2-[1-(2-fluoro-benzyl)-1H-pyrazolo [3,4-b]pyridin-3-yl]-5-methyl-6-oxo-6,7-dihydro-5H-pyrrolo[2,3-d]pyrimidin-5-yl}-1H-pyrazol-1-yl)-2,2-dimethyl-propanoic acid], the Ki in test [1] turned out to be 0.299 nM. In addition, on sGC α1/β1 heterodimer, the Emax worked out at 82.9% and the EC50 turned out to be 391 nM.
The corresponding values for `CC1(c2nc(-c3ccc(C(=O)O)cc3)co2)C(=O)Nc2nc(-c3nn(Cc4ccccc4F)c4ncccc34)nc(N)c21` (stereo not drawn) [Example 146A, 4-(2-{4-amino-2-[1-(2-fluorobenzyl)-1H-pyrazolo[3,4-b]pyridin-3-yl]-5-methyl-6-oxo-6,7-dihydro-5H-pyrrolo [2,3-d]pyrimidin-5-yl}-1,3-oxazol-4-yl)benzoic acid] are 0.062 nM, 82.1% and 94 nM.
For `CC1(c2nc(-c3ccc(C(=O)O)cc3)cs2)C(=O)Nc2nc(-c3nn(Cc4ccccc4F)c4ncccc34)nc(N)c21` (stereo not drawn) [Example 147A, 4-(2-{4-amino-2-[1-(2-fluorobenzyl)-1H-pyrazolo[3,4-b]pyridin-3-yl]-5-methyl-6-oxo-6,7-dihydro-5H-pyrrolo [2,3-d]pyrimidin-5-yl}-1,3-thiazol-4-yl)benzoic acid], the inhibition constant Ki in test [1] was 0.075 nM. In addition, on sGC α1/β1 heterodimer, the Emax turned out to be 73.4% and the EC50 came out at 61 nM.
